Source: PMC11173529, “Structure–Activity Relationship Studies in a Series of Xanthine Inhibitors of SLACK Potassium Channels” (Molecules, 2024)

Molecular target: T1, human A934T SLACK (Homo sapiens, UniProt Q5JUK3, A915T)
T1 construct: host or cells: CHO-K1
T1 sequence (Q5JUK3 1-1235 isoform Q5JUK3-3 A934T): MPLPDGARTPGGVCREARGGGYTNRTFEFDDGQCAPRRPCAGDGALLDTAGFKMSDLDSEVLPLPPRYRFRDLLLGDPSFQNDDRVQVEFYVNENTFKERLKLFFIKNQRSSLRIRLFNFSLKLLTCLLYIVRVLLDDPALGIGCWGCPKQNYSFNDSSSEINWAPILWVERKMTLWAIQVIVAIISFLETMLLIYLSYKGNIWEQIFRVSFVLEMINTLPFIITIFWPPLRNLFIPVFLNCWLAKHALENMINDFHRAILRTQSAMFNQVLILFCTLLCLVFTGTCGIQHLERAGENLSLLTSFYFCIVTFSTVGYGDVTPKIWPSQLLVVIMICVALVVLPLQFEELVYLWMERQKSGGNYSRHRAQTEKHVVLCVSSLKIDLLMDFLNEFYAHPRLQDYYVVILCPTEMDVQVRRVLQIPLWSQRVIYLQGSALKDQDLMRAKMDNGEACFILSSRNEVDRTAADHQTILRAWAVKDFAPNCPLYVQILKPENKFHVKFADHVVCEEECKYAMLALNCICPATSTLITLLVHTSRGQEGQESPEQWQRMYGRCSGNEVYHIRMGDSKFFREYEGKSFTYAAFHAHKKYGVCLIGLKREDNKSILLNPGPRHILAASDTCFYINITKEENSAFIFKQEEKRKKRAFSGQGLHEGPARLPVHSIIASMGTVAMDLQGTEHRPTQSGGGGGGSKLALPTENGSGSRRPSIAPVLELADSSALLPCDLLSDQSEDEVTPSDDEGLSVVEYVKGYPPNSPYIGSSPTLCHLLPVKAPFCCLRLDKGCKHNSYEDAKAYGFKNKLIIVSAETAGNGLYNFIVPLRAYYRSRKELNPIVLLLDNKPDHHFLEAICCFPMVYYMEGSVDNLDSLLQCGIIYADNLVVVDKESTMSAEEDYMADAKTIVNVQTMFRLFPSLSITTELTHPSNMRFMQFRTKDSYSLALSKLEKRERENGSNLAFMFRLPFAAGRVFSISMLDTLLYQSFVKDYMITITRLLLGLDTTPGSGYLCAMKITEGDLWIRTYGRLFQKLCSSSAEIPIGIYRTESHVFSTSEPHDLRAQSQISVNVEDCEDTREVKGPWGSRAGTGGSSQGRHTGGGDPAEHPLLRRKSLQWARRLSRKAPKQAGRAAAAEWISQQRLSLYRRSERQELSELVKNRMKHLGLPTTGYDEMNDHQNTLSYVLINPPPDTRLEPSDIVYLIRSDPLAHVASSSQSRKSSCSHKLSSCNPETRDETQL
Test: Whole-cell APC in CHO cells stably expressing human A934T SLACK
Assay type: cell-based
Conditions: for IC50: APC, CHO cells; for Imax: maximum inhibition at 30 µM standardized to VU0606170 (100%)
Source text: Development of a useful SLACK inhibitor in vivo tool will require potent activity at the corresponding mouse ortholog as studies in appropriate mouse models will be critical. Thus, we evaluated analogs 32 and 48 in our APC assay using CHO cells stably expressing mouse WT SLACK (Table 6). […] We were also eager to evaluate the same compounds with regard to their ability to inhibit clinically relevant GOF SLACK mutants. Both the C-terminus A934T mutant and transmembrane G288S mutant have been associated with clinical cases of EIMFS [3, 7].
Stably transfected monoclonal HEK293 cell lines expressing Slick, Maxi-K α1/β3, Maxi-K α1/β4, CaV3.2, GIRK 1/2, KV2.1, KV7.2, NaV1.7, and TASK-1 were generated as previously described. Stably transfected monoclonal HEK293 cell lines expressing hERG were generated as previously described. CHO-K1 cells expressing human Slack and disease-associated human Slack mutations, G288S and A934T, were generated by transfecting a PiggyBac TRE mammalian expression vector (VectorBuilder, Chicago, IL, USA) containing KCNT1. FuGENE 6 (Promega, Madison, WI, USA) transfection reagent and protocol, together with Opti-MEM (Thermo Fisher Scientific, Walkham, MA, USA), were utilized.
Automated patch-clamp recording was performed with a SyncroPatch 768 PE system (Nanion, Munich, Germany) as previously described. Whole-cell recordings were performed at room temperature. Cells were harvested by first washing with PBS without Mg^2+ or Ca^2+ (Gibco, Billings, MT, USA) to remove cell culture media, followed by dissociation with TryPLE (Gibco, Billings, MT, USA). Cells were then resuspended and diluted to 100,000 cells/mL in external solution. External solution contained 105 mM NaCl, 4 mM KCl, 1 mM MgCl2, 5 mM CaCl2, 10 mM HEPES, and 40 mM N-Methyl-D-glucamine chloride, titrated to pH of 7.4 and osmolarity of 300 mOsm/kg; internal solution contained 70 mM NaCl, 70 mM KF, 10 mM KCl, 5 mM EGTA, and 5 mM HEPES, titrated to a pH of 7.2 and osmolarity of 295 mOsm/kg.
The APC protocol was set as follows: Cells were held at a […] of −80 mV for 100 ms, then a ramp protocol was performed from −100 mV to 80 mV at 0.4 mV/ms, followed by holding the cell at −80 mV for another 100 ms, then steps were performed at −20 mV, 0 mV, +20 mV, +40 mV, and +60 mV for 100 ms of each step. Whole-cell currents were measured at 0 mV and normalized to current after external buffer addition. […] To obtain the concentration-response relationship graphs and IC50 values, we take the median value of the last 7 current amplitude values obtained for each set of data points collected for a given concentration at a particular step.

Compound	IC50	Imax
COc1cccc(Cn2c(=O)c3c(nc(N(Cc4cccc(F)c4)CC4CC4)n3C)n(C)c2=O)c1 [Analog 79]	1 µM	–
CCCCN(Cc1cccc(F)c1)c1nc2c(c(=O)n(Cc3cccc(OC)c3)c(=O)n2C)n1C [Analog 78]	0.35 µM	–
COc1cccc(Cn2c(=O)c3c(nc(N(Cc4ccc(F)cc4)CC4CC4)n3C)n(C)c2=O)c1 [Analog 81]	1.2 µM	–
CN(Cc1cccc(F)c1)c1nc2c(c(=O)n(Cc3ccccc3)c(=O)n2C)n1C [Analog 48]	0.82 µM	100%
CCCCN(Cc1ccc(F)cc1)c1nc2c(c(=O)n(Cc3cccc(OC)c3)c(=O)n2C)n1C [Analog 80]	0.59 µM	–
COc1cccc(Cn2c(=O)c3c(nc(N(C)Cc4ccccc4)n3C)n(C)c2=O)c1 [Analog 32]	0.78 µM	99%
